Data set [1] deals with T1, recombinant purified human BTK (Homo sapiens, UniProt Q06187).
T1 construct: purchased SignalChem, USA
Nature of the data set: In vitro BTK kinase assay on ADP Glo platform. The data set is classed as biochemical. To be noted: 2 hr room temperature, read-out: In-vitro BTK inhibitory activity: IC50. The essentials:
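Recombinant human BTK (3 ng/reaction) with compound dilutions in Tris pH 7.5, MgCl2/MnCl2, BSA, DTT; started with 50 µM ATP (final) and polyGln4Tyr1 substrate, 2 h at room temperature. ADP formed detected by ADP-Glo luminescence; IC50 by nonlinear fit versus uninhibited enzyme as 100%.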

Data set [2] concerns the target T2, CYP 1A2 (Homo sapiens, UniProt P05177).
T2 construct: from tissue; host or cells: human liver microsomes
T2 sequence (P05177 1-516): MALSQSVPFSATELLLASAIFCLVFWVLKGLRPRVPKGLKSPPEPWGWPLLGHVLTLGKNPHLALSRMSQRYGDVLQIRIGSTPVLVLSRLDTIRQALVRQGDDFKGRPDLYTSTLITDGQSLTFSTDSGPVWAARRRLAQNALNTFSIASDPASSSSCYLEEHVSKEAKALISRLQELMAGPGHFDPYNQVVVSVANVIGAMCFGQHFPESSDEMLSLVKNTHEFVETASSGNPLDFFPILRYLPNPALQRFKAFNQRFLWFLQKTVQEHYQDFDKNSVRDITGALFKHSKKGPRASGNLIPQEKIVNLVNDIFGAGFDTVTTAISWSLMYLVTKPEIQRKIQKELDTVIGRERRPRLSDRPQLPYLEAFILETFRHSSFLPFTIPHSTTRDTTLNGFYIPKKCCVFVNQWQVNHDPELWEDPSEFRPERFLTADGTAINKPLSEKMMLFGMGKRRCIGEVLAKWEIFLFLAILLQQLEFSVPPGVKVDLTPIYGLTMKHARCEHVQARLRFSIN
Nature of the data set: CYP inhibition in human liver microsomes, 1A2. In kind it is in vitro ADME. The conditions noted are these: pH 7.4, @ 10 μM concn. The essentials: (§1)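 Test compounds at […] and 10 μM were incubated in duplicate with human liver microsomes, probe substrate and 1 mM NADPH in 100 mM phosphate buffer pH 7.4 at 37° C. Reactions were stopped with acetonitrile containing internal standard, and the marker-reaction metabolite was quantified by LC-MS/MS.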
Background: Microsomes from liver hold many membrane-bound enzymes, among them those of drug oxidation.

The target in data set [3] is T3, CYP 2C8 (Homo sapiens, UniProt P10632).
T3 construct: from tissue; host or cells: human liver microsomes
T3 sequence (P10632 1-490): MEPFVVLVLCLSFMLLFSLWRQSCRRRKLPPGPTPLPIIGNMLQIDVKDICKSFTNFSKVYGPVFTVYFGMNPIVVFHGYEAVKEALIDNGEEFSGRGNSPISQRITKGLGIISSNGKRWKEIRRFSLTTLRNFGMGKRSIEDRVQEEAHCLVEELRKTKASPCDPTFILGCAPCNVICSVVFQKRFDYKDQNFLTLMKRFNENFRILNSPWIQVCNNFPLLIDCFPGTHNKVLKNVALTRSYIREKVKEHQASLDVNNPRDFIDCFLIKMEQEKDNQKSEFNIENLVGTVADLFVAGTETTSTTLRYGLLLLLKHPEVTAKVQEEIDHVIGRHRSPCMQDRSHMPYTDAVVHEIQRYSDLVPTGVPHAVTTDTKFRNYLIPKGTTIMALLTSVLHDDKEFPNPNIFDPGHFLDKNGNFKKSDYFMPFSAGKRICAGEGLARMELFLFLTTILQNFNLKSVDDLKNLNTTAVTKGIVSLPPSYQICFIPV
The data set is described as follows: CYP inhibition in human liver microsomes, 2C8. In kind it is in vitro ADME. To be noted: pH 7.4, @ 10 μM concn. The procedure, abridged: as §1

Data set [4] concerns the target T4, CYP 2C19 (Homo sapiens, UniProt P33261).
T4 construct: from tissue; host or cells: human liver microsomes
The data set is described as follows: CYP inhibition in human liver microsomes, 2C19. The data set is classed as in vitro ADME. The conditions noted are these: pH 7.4, @ 10 μM concn. The procedure, abridged:
as §1

The target of data set [5] is T5, CYP 3A4 (Homo sapiens, UniProt P08684).
T5 construct: from tissue; host or cells: human liver microsomes
T5 sequence (P08684 whole entry): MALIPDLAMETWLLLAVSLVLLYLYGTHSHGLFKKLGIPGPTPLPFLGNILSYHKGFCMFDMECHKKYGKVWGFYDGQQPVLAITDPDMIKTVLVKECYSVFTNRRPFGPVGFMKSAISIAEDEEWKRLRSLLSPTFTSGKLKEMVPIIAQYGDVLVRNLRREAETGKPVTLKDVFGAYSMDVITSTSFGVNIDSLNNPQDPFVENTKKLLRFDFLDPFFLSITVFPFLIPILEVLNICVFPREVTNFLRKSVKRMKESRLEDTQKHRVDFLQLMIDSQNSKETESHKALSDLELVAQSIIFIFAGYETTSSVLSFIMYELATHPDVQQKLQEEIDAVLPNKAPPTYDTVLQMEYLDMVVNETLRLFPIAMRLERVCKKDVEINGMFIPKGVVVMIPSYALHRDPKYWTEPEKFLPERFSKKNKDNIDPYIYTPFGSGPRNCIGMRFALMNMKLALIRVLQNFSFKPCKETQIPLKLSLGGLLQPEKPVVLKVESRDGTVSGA
The data set is described as follows: CYP inhibition in human liver microsomes, 3A4. The data set is classed as in vitro ADME. To be noted: pH 7.4, @ 10 μM concn. The procedure, abridged:
as §1

T1 sequence (Q06187 whole entry): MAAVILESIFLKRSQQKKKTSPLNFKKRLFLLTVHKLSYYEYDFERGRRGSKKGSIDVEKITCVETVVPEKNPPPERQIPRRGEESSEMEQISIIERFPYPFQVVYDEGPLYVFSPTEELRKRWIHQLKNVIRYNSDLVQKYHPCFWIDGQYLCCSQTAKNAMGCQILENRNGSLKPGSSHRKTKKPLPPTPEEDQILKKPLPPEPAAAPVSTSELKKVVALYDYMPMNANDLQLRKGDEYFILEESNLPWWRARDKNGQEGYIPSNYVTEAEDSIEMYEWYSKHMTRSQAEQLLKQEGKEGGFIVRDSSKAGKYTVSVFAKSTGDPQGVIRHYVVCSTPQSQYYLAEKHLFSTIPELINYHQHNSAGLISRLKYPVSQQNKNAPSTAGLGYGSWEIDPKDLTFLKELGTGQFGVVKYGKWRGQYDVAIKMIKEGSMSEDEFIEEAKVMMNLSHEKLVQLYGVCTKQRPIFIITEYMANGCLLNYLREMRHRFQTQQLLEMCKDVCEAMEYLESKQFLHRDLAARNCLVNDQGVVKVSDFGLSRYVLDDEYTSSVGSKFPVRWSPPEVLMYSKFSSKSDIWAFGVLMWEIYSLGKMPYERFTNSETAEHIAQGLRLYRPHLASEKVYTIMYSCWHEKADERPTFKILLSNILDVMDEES
T4 sequence (P33261 whole entry): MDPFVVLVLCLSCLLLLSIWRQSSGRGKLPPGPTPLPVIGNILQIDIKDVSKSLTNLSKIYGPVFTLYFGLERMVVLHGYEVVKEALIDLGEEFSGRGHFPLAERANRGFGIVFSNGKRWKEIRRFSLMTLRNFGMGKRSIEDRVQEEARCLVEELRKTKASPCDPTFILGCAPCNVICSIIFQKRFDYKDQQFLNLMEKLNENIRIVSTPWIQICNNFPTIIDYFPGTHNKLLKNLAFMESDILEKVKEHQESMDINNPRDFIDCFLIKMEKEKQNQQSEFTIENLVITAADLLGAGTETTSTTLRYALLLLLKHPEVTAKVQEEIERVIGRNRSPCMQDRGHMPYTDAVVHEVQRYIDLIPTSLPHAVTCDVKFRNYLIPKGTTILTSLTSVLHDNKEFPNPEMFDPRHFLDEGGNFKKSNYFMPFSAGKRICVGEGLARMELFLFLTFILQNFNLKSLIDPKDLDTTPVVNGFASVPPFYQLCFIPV

As usually defined, the IC50 is the concentration needed to halve the response being measured. In general, inhibition refers to the percentage by which the read-out fell short of the control. Higher therefore signals a response far below the control. As for `C=CC(=O)N1CC2CC(n3nc(-c4ccc(C(=O)N(C)c5cc(C)ccn5)cc4)c4c(N)ncnc43)CC2C1` (stereo not shown) [Compound 54, 4-(1-(2-acryloyloctahydrocyclopenta[c]pyrrol-5-yl)-4-amino-1H-pyrazolo[3,4-d]pyrimidin-3-yl)-N-methyl-N-(4-methylpyridin-2-yl)benzamide], in data set [1], the IC50 was determined as 0.1 nM. For the same compound, the inhibition at 10 μM in data set [2], in data set [3], in data set [4] and in data set [5] was less than 50% throughout.
Turning to `C=CC(=O)N1CC2CC(n3nc(-c4ccc(-c5nnc(-c6cnccn6)s5)cc4)c4c(N)ncnc43)CC2C1` (stereo not shown) [Compound 46, 1-(5-(4-amino-3-(4-(5-(pyrazin-2-yl)-1,3,4-thiadiazol-2-yl)phenyl)-1H-pyrazolo[3,4-d]pyrimidin-1-yl)hexahydrocyclopenta[c]pyrrol-2(1H)-yl)prop-2-en-1-one], the half-inhibitory concentration (IC50) in data set [1] was found to be 1 nM. The inhibition at 10 μM in data set [2], in data set [3], in data set [4] and in data set [5] was less than 50% throughout.
As to `C=CC(=O)N1CC2CC(n3nc(-c4ccc(C(=O)Nc5cc(C)ccn5)cn4)c4c(N)ncnc43)CC2C1` (stereo not shown) [Compound 42, 6-(1-(2-acryloyloctahydrocyclopenta[c]pyrrol-5-yl)-4-amino-1H-pyrazolo[3,4-d]pyrimidin-3-yl)-N-(4-methylpyridin-2-yl)nicotinamide], the concentration for half-maximal inhibition (IC50) in data set [1] turned out to be 0.1 nM. In addition, the inhibition at 10 μM in data set [2], in data set [3], in data set [4] and in data set [5] was less than 50% in each case.
On to `C=CC(=O)N1CC2CC(N3C(=O)N(c4ccc(Oc5ccccc5)cc4)C4C(N)=NC=NC43)CC2C1` (stereo not shown) [Compound 25, 9-(2-acryloyloctahydrocyclopenta[c]pyrrol-5-yl)-6-amino-7-(4-phenoxyphenyl)-5,7-dihydro-4H-purin-8(9H)-one], for which the half-maximal inhibitory concentration (IC50) in data set [1] was 5 nM. Besides, the inhibition at 10 μM in data set [2], in data set [3], in data set [4] and in data set [5] was less than 50% in each case.
As to `C=CC(=O)N1CC2CC(n3nc(-c4ccc(NC(=O)c5ccccn5)cc4)c4c(N)ncnc43)CC2C1` (stereo not shown) [Compound 32, N-(4-(1-(2-acryloyloctahydrocyclopenta[c]pyrrol-5-yl)-4-amino-1H-pyrazolo[3,4-d]pyrimidin-3-yl)phenyl)picolinamide], the half-maximal inhibitory concentration (IC50) in data set [1] came to 4 nM. In addition, the inhibition at 10 μM in data set [2] was less than 50%; in data set [3] it was less than 50%; in data set [4] it was less than 50%; in data set [5], more than 50%.

Values taken from patent US9840509B2, “Heterocyclic compounds” (CADILA HEALTHCARE LIMITED, priority 2014, dated 2017).
